Data reported in US10640507B2, “PBD antibacterial agents” (KING'S COLLEGE LONDON, priority 2015, dated 2020).
In brackets after ≈: the same amount, converted by molar mass.

Experiments:
Experiment in all cases: Effect of efflux pump inhibitors (EPIs) on MIC
M6 = assay type: cell-based, K. pneumoniae
Method: (§1) 1. Grow up cultures of bacterial strains to be tested overnight.
(§2) 2. Dilute down overnight cultures to concentration of 1×10^6 bacteria/ml (OD0.01) in Tryptic soy broth (TSB).
(§3) 3. Add 100 μl of TSB media to column 2-column 12 in 96 well plate (keeping column 1 clear).
(§4) 4. Make up compound to a concentration of 64 μg/ml in water.
(§5) 5. Add 100 μl of antibiotic solution to the 1st and 2nd columns.
(§6) 6. Using a multichannel pipette take 100 μl from the 2nd column wells and pipette into 3rd column wells and repeat down the 96 well plate (remember to include controls i.e. uninfected media and media with no antibiotic).
(§7) 7. To each well (except uninfected control row H) add 50 μl/well of EPI at 4× final concentration in TSB.
(§8) 9. In wells used to test the effect of the EPI carbonyl cyanide 3-chlorophenylhydrazone (CCCP) the CCCP is added at 10 μg/ml final concentration.
(§9) 10. In wells used to test the effect of the EPI phenylalanine-arginine β-naphthylamide (PABN) the PABN is added at 25 μg/ml final concentration.
(§10) 11. In wells used to test the effect of the PABN+Mg, the PABN is added at 25 μg/ml final concentration, with 1 mM MgSO4 in TSB.
(§11) 12. Wrap plate with parafilm to prevent evaporation.
(§12) 13. Leave at desired temperature (37° C. unless specified elsewhere) for 20 hours.
(§13) 14. Next day check plates for growth and measure optical density (i.e. absorbance) at a wavelength of 600 nm (OD600).
(§14) Compound KMR-14-33 was tested against a range of bacterial species using the above protocol. Compound PP-A148 was also tested against a more limited range of bacterial species using the above protocol. For KMR-14-33 measurements were carried out for the compound alone, for the compound plus CCCP, for the compound plus PABN and for the compound plus PABN and plus Mg. For PP-A148 measurements were carried out for the compound alone and for the compound plus PABN.

NCTC 13437 = assay type: cell-based, P. aeruginosa
Method: as §1, §2, §3, §4, §5, §6, §7, §8, §9, §10, §11, §12, §13, §14

PA01 = assay type: cell-based, P. aeruginosa
Method: as §1, §2, §3, §4, §5, §6, §7, §8, §9, §10, §11, §12, §13, §14

SMILES: COc1cc2c(cc1OCCCC(=O)Nc1cc(C(=O)Nc3ccc4oc(C(=O)N5CCSCC5)cc4c3)n(C)c1)N=C[C@@H]1CCCN1C2=O [PP-A148, (S)-4-(4-((7-methoxy-5-oxo-2,3,5,11a-tetrahydro-1H-benzo-[e]pyrrolo[1,2-a][1,4]diazepin-8-yl)oxy)butanamido)-1-methyl-N-(2-(thiomorpholine-4-carbonyl)benzofuran-5-yl)-1H-pyrrole-2-carboxamide]
- MIC (M6; Klebsiella pneumoniae, read-out: Control with no EPI MIC): 0.25 to 0.5 µg/mL (≈ 0.358 to 0.716 µM)
- +PABN MIC (M6; M6, PABN at 25 μg/ml): 0.125 µg/mL
- +PABN MIC (NCTC 13437; NCTC 13437, PABN at 25 μg/ml): 0.25 to 2 µg/mL
- MIC (NCTC 13437; Pseudomonas aeruginosa, NCTC13437, read-out: Control with no EPI MIC): 16 µg/mL (≈ 22.9 µM)
- +PABN MIC (PA01; PABN at 25 μg/ml): 4 to 8 µg/mL
- MIC (PA01; Pseudomonas aeruginosa, no EPI, read-out: Control with no EPI MIC): 128 µg/mL (≈ 183 µM)
